Laboratory results as given in patent US6482921B1, “Uridyl peptide antibiotic (UPA) derivatives, their synthesis and use” (Essential Therapeutics, Inc., priority 1999, dated 2002).
≈ marks a conversion by molar mass, not a printed value.

Tests used:
Type in all cases: cell-based
Escherichia Coli MC 4100 = test: MIC broth microdilution, E. coli MC 4100 (wild type); conditions: E. coli MC 4100
[1] = tested on: Pseudomonas aeruginosa PAM 1154; test: MIC broth microdilution, P. aeruginosa PAM 1154 (OprM::Hg); conditions: P. aeruginosa PAM 1154 OprM::Hg
[2] = tested on: Staphylococcus aureus ATCC 29213; test: MIC broth microdilution, S. aureus ATCC 29213 (wild type); conditions: S. aureus ATCC 29213
[3] = tested on: Pseudomonas aeruginosa PAM 1020; test: MIC broth microdilution, P. aeruginosa PAM 1020 (wild type); conditions: P. aeruginosa PAM 1020
[4] = tested on: Pasteurella multocida pm002; test: MIC broth microdilution, P. multocida pm002 (wild type)
[5] = tested on: Escherichia Coli MC 4100 AcrAB; test: MIC broth microdilution, E. coli MC 4100 AcrAB (ΔAcrAB); conditions: E. coli AcrAB
[6] = tested on: Staphylococcus aureus 8325-4; test: MIC broth microdilution, S. aureus 8325-4 (wild type); conditions: S. aureus 8325-4
[7] = tested on: Pseudomonas aeruginosa PAM 1135; test: MIC broth microdilution, P. aeruginosa PAM 1135 (high level UPA resistance); conditions: P. aeruginosa PAM 1135 UPA1^r
[8] = tested on: Pseudomonas aeruginosa PAM 1323; test: MIC broth microdilution, P. aeruginosa PAM 1323 (medium level UPA resistance)
[9] = tested on: Escherichia Coli MC 4100 AcrAB UPA3r; test: MIC broth microdilution, E. coli MC 4100 AcrAB UPA3r (ΔAcrAB, UPA resistant); conditions: E. coli AcrAB UPA3^r

| SMILES | MIC (μg/ml) Broth microdilution (Escherichia Coli MC 4100) [µg/mL] | MIC (μg/ml) Broth microdilution [1] [µg/mL] | MIC (μg/ml) Broth microdilution [2] [µg/mL] | MIC (μg/ml) Broth microdilution [3] [µg/mL] | MIC (μg/ml) Broth microdilution [4] [µg/mL] | MIC (μg/ml) Broth microdilution [5] [µg/mL] | MIC (μg/ml) Broth microdilution [6] [µg/mL] | MIC (μg/ml) Broth microdilution [7] [µg/mL] | MIC (μg/ml) Broth microdilution [8] [µg/mL] | MIC (μg/ml) Broth microdilution [9] [µg/mL] |
| --- | --- | --- | --- | --- | --- | --- | --- | --- | --- | --- |
| CC(C(NC(=O)C(Cc1ccc(F)cc1)NC(=O)NC(Cc1ccc(O)cc1)C(=O)O)C(=O)NCC1CC(O)C(n2ccc(=O)[nH]c2=O)O1)N(C)C(=O)c1cccc(N)c1 [Compound 131, 1-[5′-[(2S,3S)-N^3-3-Aminobenzoyl-N^2-[N-[[(1S)-1-carboxy-4-hydroxyphenethyl]carbamoyl]-L-4-fluorophenylalanyl]-N^3-methyl-2,3-diaminobutyramido]-3′,5′-dideoxy-α-Larabinofuranosyl]uracil] | >512 | 512 (≈ 615 µM) | 512 (≈ 615 µM) | 512 (≈ 615 µM) | >512 | 16 (≈ 19.2 µM) | >512 | >512 | >512 | 512 (≈ 615 µM) |
| CC(C)CC(N)C(=O)N(C)C(C)C(NC(=O)C(Cc1ccccc1)NC(=O)NC(Cc1ccc(O)cc1)C(=O)O)C(=O)NCC1CC(O)C(n2ccc(=O)[nH]c2=O)O1 [Compound 101, 1-[5′-[(2S,3S)-N^2-[N-[[(1S)-1-Carboxy-4-hydroxyphenethyl]carbamoyl]-L-phenylalanyl]-N^3-L-leucyl-N^3-methyl-2,3-diaminobutyramido]-3′,5′-dideoxy-α-L-arabinofuranosyl]uracil] | >512 | 8 (≈ 9.89 µM) | >512 | 128 (≈ 158 µM) | >512 | 2 (≈ 2.47 µM) | >512 | >512 | >512 | 128 (≈ 158 µM) |
| CSCCC(NC(=O)NC(Cc1ccc(O)cc1)C(=O)O)C(=O)NC(C(=O)NCC1CC(O)C(n2ccc(=O)[nH]c2=O)O1)C(C)N(C)C(=O)CN [Compound 104, 1-[5′[(2S,3S)-N^2-(N-[[(1S)-1-Carboxy-4-hydroxyphenethyl]carbamoyl]-L-methionyl]-N^3-glycyl-N^3-methyl-2,3-diaminobutyramidol-3′,5′-dideoxy-α-L-arabinofuranosyl]uracil] | <512 | 4 (≈ 5.43 µM) | >512 | 32 (≈ 43.4 µM) | 256 (≈ 347 µM) | 16 (≈ 21.7 µM) | >512 | >512 | <512 | 128 (≈ 174 µM) |
| CC(C)CC(N)C(=O)N(C)C(C)C(NC(=O)C(CC(C)C)NC(=O)NC(Cc1c[nH]c2ccccc12)C(=O)O)C(=O)NCC1CC(O)C(n2ccc(=O)[nH]c2=O)O1 [Compound 108, 1-[5′[(2S,3S)-N^2-[N-[[(1S)-1-Carboxy-2-indol-3-ylethyl]carbamoyl]-L-leucyl]-N^3-L-leucyl-N^3-methyl-2,3-diaminobutyramido]-3′,5′-dideoxy-α-L-arabinofuranosyl]uracil] | 256 (≈ 321 µM) | 32 (≈ 40.1 µM) | >512 | 256 (≈ 321 µM) | 512 (≈ 642 µM) | <1 | >512 | >512 | 512 (≈ 642 µM) | 16 (≈ 20.1 µM) |
| CC(N)C(=O)N(C)C(C)C(NC(=O)C(CCc1ccccc1)NC(=O)NC(Cc1c[nH]c2ccccc12)C(=O)O)C(=O)NCC1CC(O)C(n2ccc(=O)[nH]c2=O)O1 [Compound 138, 1-[5′-[(2S,3S)-N^3-L-Alanyl-N^2-[N-[[(1S)-1-carboxy-2-indol-3-ylethyl]carbamoyl]-L-homophenylalanyl]-N^3-methyl-2,3-diaminobutyramido]-3′,5′-dideoxy-α-L-arabinofuranosyl]uracil] | 512 (≈ 637 µM) | 8 (≈ 9.95 µM) | >512 | 32 (≈ 39.8 µM) | >512 | 2 (≈ 2.49 µM) | >512 | >512 | >512 | 256 (≈ 318 µM) |
| CNC(C)C(NC(=O)C(Cc1ccc(F)cc1)NC(=O)NC(Cc1ccc(O)cc1)C(=O)O)C(=O)NCC1CC(O)C(n2ccc(=O)[nH]c2=O)O1 [Compound 127, 1-[5′-[(2S,3S)-N^2-[N-[[(1S)-1-carboxy-4-hydroxyphenethyl)carbamoyl]-L-4-fluorophenylalanyl]-N^3-methyl-2,3-diaminobutyramidol-3′,5′-dideoxy-α-L-arabinofuranosyl]uracil] | >512 | 512 (≈ 717 µM) | >512 | >512 | >512 | 4 (≈ 5.6 µM) | >512 | >512 | >512 | 32 (≈ 44.8 µM) |
| C[C@H](N)C(=O)N(C)[C@@H](C)[C@H](NC(=O)[C@H](Cc1ccc2ccccc2c1)NC(=O)N[C@@H](Cc1c[nH]c2ccccc12)C(=O)O)C(=O)NC[C@H]1C[C@@H](O)[C@H](n2ccc(=O)[nH]c2=O)O1 [Compound 153] | 512 (≈ 610 µM) | 16 (≈ 19 µM) | 512 (≈ 610 µM) | 128 (≈ 152 µM) | 64 (≈ 76.2 µM) | 2 (≈ 2.38 µM) | 256 (≈ 305 µM) | >512 | >512 | 128 (≈ 152 µM) |
| CN[C@@H](C)[C@H](NC(=O)[C@H](C)NC(=O)N[C@@H](Cc1c[nH]c2ccccc12)C(=O)O)C(=O)NC[C@H]1C[C@@H](O)[C@H](n2ccc(=O)[nH]c2=O)O1 [Compound 165, 1-[5′-[(2S,3S)-N^2-[N-[[(1S)-1-Carboxy-2-indol-3-ylethyl]carbamoyl]-L-alanyl]-N^3-methyl-2,3-diaminobutyramido]-3′,5′-dideoxy-α-L-arabinofuranosyl]uracil] | >512 | 128 (≈ 199 µM) | >512 | >512 | 256 (≈ 398 µM) | 4 (≈ 6.22 µM) | >512 | >512 | >512 | 128 (≈ 199 µM) |
| CC(N)C(=O)N(C)C(C)C(NC(=O)C(Cc1cscn1)NC(=O)NC(Cc1ccc(O)cc1)C(=O)O)C(=O)NCC1CC(O)C(n2ccc(=O)[nH]c2=O)O1 [Compound 132, 1-[5′-[(2S,3S)-N^3-L-Alanyl-N^2-[N-[[(1S)-1-carboxy-4-hydroxyphenethyl]carbamoyl]-L-thiazolylalanyl]-N^3-methyl-2,3-diaminobutyramido]-3′,5′-dideoxy-α-L-arabinofuranosyl]uracil] | 256 (≈ 331 µM) | 32 (≈ 41.4 µM) | >512 | 128 (≈ 165 µM) | >512 | 8 (≈ 10.3 µM) | >512 | >512 | >512 | 32 (≈ 41.4 µM) |
| CC(C(NC(=O)C(Cc1ccc(F)cc1)NC(=O)NC(Cc1ccc(O)cc1)C(=O)O)C(=O)NCC1CC(O)C(n2ccc(=O)[nH]c2=O)O1)N(C)C(=O)CN [Compound 129, 1-[5′-[(2S,3S)-N^2-[N-[[(1S)-1-Carboxy-4-hydroxyphenethyl)-L-4-fluorophenylalanyl]-N^3-glycyl-N^3-methyl-2,3-diaminobutyramido]-3′,5′-dideoxy-α-L-arabinofuranosyl]uracil] | 8 (≈ 10.4 µM) | 8 (≈ 10.4 µM) | >512 | 32 (≈ 41.5 µM) | 256 (≈ 332 µM) | <1 | 512 (≈ 664 µM) | >512 | >512 | 2 (≈ 2.59 µM) |
| CC(N)C(=O)N(C)C(C)C(NC(=O)C(Cc1ccc([N+](=O)[O-])cc1)NC(=O)NC(Cc1ccc(O)cc1)C(=O)O)C(=O)NCC1CC(O)C(n2ccc(=O)[nH]c2=O)O1 [Compound 126, 1-[5′-[(2S,3S)-N^3-L-Alanyl-N^2-[N-[[(1S)-1-carboxy-4-hydroxyphenethyl]carbamoyl]-L-4-nitrophenylalanine-N^3-methyl-2,3-diaminobutyramido]-3′,5′-dideoxy-α-L-arabinofuranosyl]uracil] | 16 (≈ 19.7 µM) | 16 (≈ 19.7 µM) | 512 (≈ 631 µM) | 128 (≈ 158 µM) | 512 (≈ 631 µM) | <1 | 256 (≈ 315 µM) | >512 | >512 | 4 (≈ 4.93 µM) |
